Data taken from patent US20230241075A1, “IRAK DEGRADERS AND USES THEREOF” (Kymera Therapeutics, Inc., priority 2020, published 2023).
“Also recorded” adds a separate entry of the source.

Tested on: TLR7/8 agonist R848-stimulated monocytes
Assay: Ex-vivo R848-stimulated healthy monocytes, RNA-seq of HS-overexpressed proinflammatory transcripts
Format: cell-based, human
Details: healthy donor monocytes (N=3), 500 nM overnight, then R848, RNA-seq at 2 hours

Cn1c(=O)n(C2CCC(=O)NC2=O)c2cccc(C#CCOC3CCN(C[C@H]4CC[C@H](n5cc(NC(=O)c6cnn7ccc(N8C[C@H]9C[C@@H]8CO9)nc67)c(C(F)F)n5)CC4)CC3)c21 (stereo partly shown) [Degrader 2]
effect on TLR-mediated (R848) induction of HS-overexpressed proinflammatory transcripts: inhibits TLR-mediated induction of HS-overexpressed proinflammatory transcripts; also recorded: inhibits TLR-stimulated upregulation of HS-overexpressed inflammatory genes
